Data as given in patent US20220054658A1, “CONJUGATES” (Transfection Holdings Limited, priority 2018, published 2022).
“Also recorded” adds a separate entry of the source.

Experiments:
C. elegans = assay: Conjugate uptake in C. elegans (dye and praziquantel conjugates, fluorescence microscopy); format: in vivo, Caenorhabditis elegans; conditions: 50 μM; for viability of the nematodes: readings up to 72 h
Description: Nematode Growth Media (NGM) plates containing C. elegans were washed with 1.0-1.5 mL of standard M9 buffer and the washes were collected in an Eppendorf tube. The liquid containing the C. elegans was then spun for 1 min at room temperature at 10,000 rpm. The supernatant was removed, and fresh M9 buffer was added (500 μL) to generate a new stock solution of M9 buffer containing the C. elegans.
A C. elegans suspension (100 μL) was added a defined amount of M9 buffer (determined by the final desired concentration of compound to be tested: 399 μL in the case of the BODIPY tagged derivatives) contained within a separate Eppendorf tube. To this was then added a 25 mM solution of the compound in DMSO (1 μL). The resulting suspension was mixed using a vortex instrument.
The resulting mixture was incubated at room temperature for 2 to 4 h. in the dark (using aluminium foil to screen the tube, which was also stored in a cabinet).
Other samples were incubated overnight. Here, OP50 bacteria (3 μL) were added to the worms for feeding purposes, and the worms were kept in the dark at 20° C.
After the incubation, the tube contents were mixed gently by hand (typically by simple rotation of the tube), so as to achieve a homogenous suspension. A sample of the suspension (250 μL) was taken and mixed with M9 buffer (500 μL). The resulting suspension was placed in a centrifuge and spun at room temperature at 10,000 rpm for 1 min. The supernatant was removed, and the washing process was repeated twice more, each time using further quantities of fresh M9 buffer (500 μL each time). After the final washing sufficient supernatant was removed so as to leave a final sample volume of approximate 30 μL.
A 1.5% agarose solution in water was pre-warmed for 60 to 90 s. in a standard household style microwave (set to Power 4). Two drops of this solution was removed and placed on a glass slide. The glass slide was covered with a second glass slide. After 1 min., the slides were slid carefully apart, with the agarose remaining on one of the slides. Onto this slide was placed an aliquot of the final C. elegans solution (15 to 20 μL). To this was added a 20 mM sodium azide solution (5 μL) to inhibit nematode mobility. Vaseline was then placed around the agarose area before replacing the second slide. The slides were not pressed together.
The nematodes were then analysed using a Zeiss Axiskop 2 Plus microscope with a Hamamatsu Orca-ER (CA 742-95) camera. The images were resolved using OpenLab on a Mac operating system.
Compounds 1-11 were evaluated after 3 h and overnight incubation at a 50 μM concentration using the general uptake protocol described for C. elegans.
In order to compare the ability of a conjugate to improve the uptake of the drug praziquantel, two praziquantel derivatives were generated. Praziquantel was tagged with a BODIPY fluorescent tag (compound 12) and incorporated into a conjugate of the invention (compound 13). Compounds 12 and 13 were evaluated at a concentration of 50 μM using the C. elegans uptake protocol described above for compounds 1-11. Microscopic readings were taken after 3, 24 and 72 h.

[1] = tested on: gastrointestinal system (crop, midgut and rectum) of adult honey bees; assay: Honey bee gut uptake test; set-up: species or system Apis mellifera; conditions: 100 μM, 33° C., 45 min
Description: Honey bee (A. mellifera) hives were obtained and allowed to feed ab libitum spring to autumn. During the winter period, pollen mixed with 50% (v/v) sucrose was added to the honey bee hives in order to provide sufficient food. Honey bees were dissected and gastrointestinal system was removed including the crop, midgut and rectum, and added immediately to 500 μL of the delivery vehicle to be tested sample diluted with PBS at 100 μM final concentration or DMSO (0.1%) control. The mixture was incubated for 45 min at 33° C.
The gastrointestinal system (crop, midgut and rectum) of adult honey bees was extracted, and incubated with derivatives 1, 2, 8 and 11 at 100 μM and 33° C. for 45 min.

L. passim strain PRA-403 = assay: Lotmaria passim parasite uptake test; format: cell-based; conditions: room temperature, 45 min; for uptake in L. passim (fluorescence intensity, microplate reader): 1 μM and 100 μM
Description: 100 mM stock solutions of BODIPY derivatives were prepared with dimethylsulfoxide (DMSO). L passim strain PRA-403 (ATCC) was cultured in modified medium for C. bombi (Tognazzo et al.). The parasite culture was centrifuged, supernatant was removed and 500 μL of L passim medium with compound (final concentration 500, 100, 10 or 1 μM for BODIPY derivatives) or DMSO (0.1%) control was added. Incubated for 45 min at room temperature.
Uptake tests were performed at 1 μM and 100 μM final concentration of CJ-BODIPY derivatives. After incubation at room temperature for 45 min, fluorescence intensities were evaluated using a microplate reader.

| Compound | uptake: location of fluorescence in C. elegans (C. elegans; 3 h incubation) | increase in uptake of compound 13 compared to compound 12 (C. elegans; 20 h incubation) | uptake: location of fluorescence in C. elegans (C. elegans; 24 h incubation) | uptake: location of fluorescence in C. elegans (C. elegans; 72 h incubation) | viability of the nematodes (C. elegans) | fluorescence in honey bee gut (crop, midgut, rectum) [1] | uptake in L. passim (fluorescence intensity, microplate reader) (L. passim strain PRA-403) | uptake in L. passim (fluorescence microscopy) (L. passim strain PRA-403; 10 μM) | uptake compared to other compounds (C. elegans; 3 h incubation) | uptake: location of fluorescence in C. elegans (C. elegans; 20 h / overnight incubation) |
| --- | --- | --- | --- | --- | --- | --- | --- | --- | --- | --- |
| CC1(C)OCC(C)(C)[C@H](C(=O)N/C=C/C(=O)NCCc2cn(CCCC3=[N+]4C(=Cc5ccc(CCC(=O)N6CC(=O)N7CCc8ccccc8C7C6)n5[B-]4(F)F)C=C3)nn2)O1 (stereo partly drawn) [Compound 13, 5,5-Difluoro-7-(3-oxo-3-(4-oxo-3,4,6,7-tetrahydro-1H-pyrazino[2,1-a]isoquinolin-2(11bH)-yl)propyl)-3-(3-(4-(2-((E)-3-((R)-2,2,5,5-tetramethyl-1,3-dioxane-4-carboxamido)acrylamido)ethyl)-1H-1,2,3-triazol-1-yl)propyl)-5H-dipyrrolo[1,—2-c:2′,1′-f][1,3,2]diazaborinin-4-ium-5-uide] | strongly located in the pharynx, gut cells and gut lumen of the larval stages; also recorded: In the adult nematodes, compound 13 was strongly located in the pharynx, gut cells and gut lumen, whilst not visible in the embryos | threefold increase | strongly observed in the pharynx, gut cells and gut lumen of the larva | still strongly visible in the pharynx, gut lumen and get cells of the larvae; also recorded: In the case of the adult nematodes, compound 13 was strongly visible in the pharynx and in the gut lumen, as well as in the embryos and eggs | remained viable with no apparent detrimental effect | – | – | – | – | – |
| CC1=CC(C)=[N+]2C1=Cc1ccc(CCCn3cc(CCNC(=O)/C=C\NC(=O)[C@H](O)C(C)(C)CO)nn3)n1[B-]2(F)F [Compound 8, (Z)—N-((((3-[4,4-Difluoro-5,7-dimethyl-4-bora-3a,4a-diaza-s-indacene-3-yl]propyl)-1H-1,2,3-triazol-4-yl)ethylamino)-3-oxoprop-1-enyl)-2,4-dihydroxy-3,3-dimethylbutanamide] | visible in the gut cells and gut lumen and to a lesser extent into the pharynx of larvae; also recorded: In adults, fluorescence was observed in the pharynx, the gut lumen, the gut cells, and eggs | – | – | – | – | slight fluorescence in midgut and rectum, but none in the crop | relatively low uptake | displayed fluorescence surrounding the cell membrane but not in the cytoplasm | second largest uptake observed compared to compounds 1 to 7 | fluorescence was present in the pharynx, gut lumen and gut cells of the larvae; also recorded: In adults, fluorescence was detected in the pharynx, gut lumen and gut cells, but not in the embryos |
| CC1=CC(C)=[N+]2C1=Cc1ccc(CCCn3cc(CCNC(=O)/C=C\NC(=O)[C@H](O)C(C)(C)CO)nn3)n1[B-]2(F)F [Compound 6, (Z)—N-((((3-[4,4-Difluoro-5,7-dimethyl-4-bora-3a,4a-diaza-s-indacene-3-yl]propyl)-1H-1,2,3-triazol-4-yl)ethylamino)-3-oxoprop-1-enyl)-2,4-dihydroxy-3,3-dimethylbutanamide] | visible in the gut cells and gut lumen of larval stages and in a lesser extent in the pharynx; also recorded: In adults, fluorescence was located in the pharynx, gut lumen and gut cells; also recorded: Fluorescence was not observed in the embryos | – | – | – | – | – | – | – | much lower degree than the enantiomeric analogue compound 8 | fluorescence was present in the gut lumen and gut cells, and to a smaller degree in the pharynx of the larvae; also recorded: Fluorescence was also present in the pharynx, gut cells and gut lumen of the adults as well as in the early stages of egg development; also recorded: Fluorescence was not observed in the embryos |
| CC1=CC(C)=[N+]2C1=Cc1ccc(CCC(=O)N3CC(=O)N4CCc5ccccc5C4C3)n1[B-]2(F)F (stereo not drawn) [Compound 12, 5,5-Difluoro-1,3-dimethyl-7-(3-oxo-3-(4-oxo-3,4,6,7-tetrahydro-1-pyrazino[2,1-a]isoquinolin 2(11 bH)-yl)propyl)-5H-dipyrrolo[1,2-c:2′,1′-f][1,3,2]diazaborinin-4-ium-5-uide, reference compound] | weakly up taken up into the pharynx and gut cells of the C. elegans larvae, as well as by adult nematodes mainly in the gut cells with lesser amount in the pharynx | – | the larva showed no increased uptake, with very minor amounts of compound 12 located in the pharynx and the gut cells | only the gut cells of the larvae showed the presence of small amounts of fluorescence; also recorded: In the case of the adult stages, fluorescence was visible in the gut lumen, gut cells and pharynx | remained viable with no apparent detrimental effect | – | – | – | – | – |
| CC1=CC(C)=[N+]2C1=Cc1ccc(CCCn3cc(CCNC(=O)/C=C\NC(=O)[C@H]4OC(C)(C)OCC4(C)C)nn3)n1[B-]2(F)F [Compound 4, (Z)—N-((((3-[4,4-Difluoro-5,7-dimethyl-4-bora-3a,4a-diaza-s-indacene-3-yl]propyl)-1H-1,2,3-triazol-4-yl)ethylamino)-3-oxoprop-1-enyl)-2,2,5,5-tetramethyl-1,3-dioxane-4-carboxamide] | traces of compound 4 were present in the gut cells of larval stages | – | – | – | – | – | one of the lowest amounts of uptake | – | – | fluorescence was detected in the pharynx and the gut cells of the larval stages as well as in the early stage of egg development |
